The source of these data is US8138214B2, “Pharmaceutical composition” (Shanghai Allist Pharmaceutical, Inc., priority 2007, dated 2012).

The conditions of data set [1]: dog, in vivo, po, 27 mg/kg. How it is done: (I) Beagle dogs are selected as experimental animals, six dogs per group. 2-butyl-4-chloro-1-[2′-(1H-tetrazol-5-yl) 1,1′-biphenyl-methyl]imidazole-5-carboxylic acid, 1-[(isopropoxy)carbonyloxy]methyl ester suspended in physiologic saline is administered in single dose of drug by gavage in dosage level of 3.0 mg/kg, 9.0 mg/kg, and 27 mg/kg. Blood samples were drawn for each dosage group at set time point. […] Determine the level of the active metabolite in plasma, calculate EXP3174's pharmacokinetic parameters according to the concentration-time curve, and investigate the correlation between dosage and main pharmacokinetic parameters Cmax and AUC0-t.

The test system of data set [2] is spontaneously hypertensive rat (SHR). Description: Blood pressure in spontaneously hypertensive rat after gavage. The note with it: for blood pressure decrease: SHR, dispersed in physiologic saline. Type of data set: in vivo.

`CCCCc1nc(Cl)c(C(=O)OCOC(=O)OC(C)C)n1Cc1ccc(-c2ccccc2-c2nnn[nH]2)cc1` [Compound I, 2-butyl-4-chloro-1-[2′-(1H-tetrazol-5-yl)1,1′-biphenyl-methyl]imidazole-5-carboxylic acid, 1-[(isopropoxy)carbonyloxy]methyl ester]: the “correlation between dosage and Cmax and AUC0-t of EXP3174” value in data set [1] is “proportional to the dosage”. For the same molecule, the blood pressure decrease was 10 mm of mercury column in data set [2] (15 mg/kg by gavage) and 20 mm of mercury column in data set [2] (30 mg/kg by gavage). For the same molecule, the antihypertensive effect entry in data set [2] (rats, oral dosage no less than 15 mg/kg) is “significant antihypertensive effect”.
